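Briefly, cells in 96-well plates were exposed to five compound concentrations for 48 h, and endpoints were estimated by linear interpolation. Here, GI50 denotes the concentration required for 50% inhibition of growth.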 Activity calls are given as the source filed them. No stated cut-off is given here; in the data, active = GI50 up to about 1.1 µM and inactive = higher.
How the values were obtained:
Test in all cases: NCI tumour cell line growth inhibition, 48 h
BT-549 = test system: BT-549
CAKI-1 = test system: CAKI-1
DU-145 = test system: DU-145
EKVX = test system: EKVX
HCT-116 = test system: HCT-116
HL-60 = test system: HL-60
LOX IMVI = test system: LOX IMVI
M14 = test system: M14
MCF7 = test system: MCF7
OVCAR-4 = test system: OVCAR-4
PC-3 = test system: PC-3
SF-295 = test system: SF-295
SF-539 = test system: SF-539
SK-MEL-5 = test system: SK-MEL-5
SK-OV-3 = test system: SK-OV-3
TK-10 = test system: TK-10
UACC-62 = test system: UACC-62
SNB-75 = test system: SNB-75
HCC 2998 = test system: HCC 2998

Measured: GI50

CN(C)CCCNC(=O)c1cc2/c(=C\c3ccc(N(C)C)cc3)c3ccccc3n2[n+]1C
inactive: BT-549 63.7 µM | CAKI-1 > 100 µM | DU-145 > 100 µM | EKVX 17.9 µM | HCT-116 26.2 µM | HL-60 11.9 µM | LOX IMVI 42 µM | M14 21.4 µM | MCF7 21.8 µM | OVCAR-4 8.77 µM | PC-3 39.5 µM | SF-295 40.3 µM | SF-539 21.2 µM | SK-MEL-5 15.6 µM | SK-OV-3 > 100 µM | TK-10 90.6 µM | UACC-62 17.3 µM

CSc1nc2ccccc2c(=O)n1/N=C1\C(=O)N(CN2CCOCC2)c2ccc(Cl)cc21
inactive: BT-549 15.6 µM | CAKI-1 25.5 µM | DU-145 18.5 µM | EKVX 2.6 µM | HCT-116 22.4 µM | HL-60 8.61 µM | LOX IMVI 15.2 µM | M14 26.5 µM | MCF7 19.6 µM | OVCAR-4 33.8 µM | PC-3 29 µM | SF-295 46.1 µM | SF-539 26.7 µM | SK-MEL-5 38.7 µM | SK-OV-3 30.6 µM | SNB-75 41.5 µM | TK-10 16.9 µM | UACC-62 6.68 µM

Cc1c(Cc2ccccc2)n(C(C)OCCN(OC(=O)Oc2ccccc2)C(=O)Oc2ccccc2)c(=O)[nH]c1=O (stereo not given)
inactive: BT-549 17.1 µM | CAKI-1 18.7 µM | DU-145 28.5 µM | EKVX 14.4 µM | HCC 2998 17.3 µM | HCT-116 20.5 µM | M14 16.1 µM | MCF7 23.4 µM | OVCAR-4 19.7 µM | PC-3 21.9 µM | SF-295 16 µM | SF-539 19.1 µM | SK-MEL-5 14.3 µM | SK-OV-3 17.4 µM | SNB-75 1.61 µM | UACC-62 16.3 µM

N=c1oc2cc(O)ccc2cc1C(=O)NCc1ccccc1
inactive: BT-549 17.3 µM | CAKI-1 20.3 µM | DU-145 16.6 µM | EKVX 32.8 µM | HCT-116 22.2 µM | LOX IMVI 29.5 µM | M14 34.7 µM | MCF7 33.2 µM | OVCAR-4 31.6 µM | PC-3 28.4 µM | SF-295 35.2 µM | SF-539 21.9 µM | SK-MEL-5 12.9 µM | SK-OV-3 16.2 µM | SNB-75 8.85 µM | TK-10 32.1 µM

O=C(O)CSc1ncccc1[N+](=O)[O-]
inactive: BT-549 > 100 µM | CAKI-1 > 100 µM | DU-145 > 100 µM | EKVX > 100 µM | HCT-116 > 100 µM | HL-60 > 100 µM | LOX IMVI > 100 µM | M14 > 100 µM | MCF7 > 100 µM | OVCAR-4 > 100 µM | PC-3 > 100 µM | SF-295 > 100 µM | SF-539 > 100 µM | SK-MEL-5 > 100 µM | SK-OV-3 > 100 µM | SNB-75 > 100 µM | TK-10 > 100 µM | UACC-62 > 100 µM

CC(CCc1nc2ccccc2s1)(c1ccc(O)cc1)c1ccc(O)cc1
inactive: BT-549 19.4 µM | CAKI-1 20.6 µM | DU-145 17.1 µM | EKVX 16.8 µM | HCC 2998 19.7 µM | HCT-116 18.2 µM | LOX IMVI 16 µM | M14 16.1 µM | OVCAR-4 19.1 µM | PC-3 14.8 µM | SF-295 15.6 µM | SK-MEL-5 18.4 µM | SNB-75 18.4 µM | TK-10 19.9 µM | UACC-62 15.9 µM

— ChEMBL document CHEMBL1201862, “PubChem BioAssay data set” (2004)
